These results are taken from US20250049930A1, “PROTAC MOLECULES TARGETING FOXP3 AND USES THEREOF” (CEDARS-SINAI MEDICAL CENTER, priority 2022, published 2025).

Test [1] concerns Tregs. Put plainly: Treg immunosuppression co-culture assay with mouse splenocytes (CFSE dilution, TNFα). Format: cell-based. Particulars: mouse CD4+ splenocytes treated 72 hours, co-cultured with effector cells stimulated with αCD3 and αCD28. The procedure: FIGS. 3A-3D depict that PF decreased the immunosuppressive function of Tregs in vitro and decreased tumor growth in mice. To treat Tregs, CD4+ splenocytes were isolated and treated with PF or various controls for 72 hours. To assess the immunosuppressive effects of these cells, they were washed and co-cultured with effector cells, which were stimulated with antibodies to CD3 and CD28 in vitro (FIGS. 3A-3C). CD8 proliferation was measured using a CFSE dilution assay. To assess CD8+ effector cells, CD4 negative splenocytes were CFSE labeled and CFSE dilution was measured in CD8+ cells by flow cytometry (FIG. 3A). In the same experiment, CD8+ lymphocyte activation was assessed by measuring TNFα (FIG. 3B). Also, CD4+ lymphocyte activation was assessed by measuring TNFα (FIG. 3C). Mice tumors were established by injection RENCA cells subcutaneously in the flank of Balb/C mice (5-7 mice per group) (FIG. 3D). 10 days later, mice were treated i.p., twice a week throughout the experiment, with the indicated drugs and tumor growth was monitored. Pomalidomide conjugated to (PEG)4 (PROTAC-control; PC) and P60 served as controls. […]
To assess T cell activation in vitro, single suspension of mouse splenocytes were separated into CD4 positive (+) and negative (−) cells using EasySep Mouse CD4+ selection kit (STEMCELL technologies, Vancouver, BC, Canada). […] To study effector cell function, CD4+ and CD4− cells were cocultured (1.2 ratio) with treated-Treg and stimulated with αCD3 (10 μg/mL) and αCD28 (5 μg/mL) for 3 days; percent of CD4+ or CD8+ cells staining for intracellular FoxP3, CFSE, or TNFα were assessed by flow cytometry (LSR II, BD Biosciences, San Jose, CA 95131).
Tregs play a central role in suppressing and regulating the immune response. […] CD8 proliferation was measured using a CFSE dilution assay. To assess CD8+ effector cells, CD4 negative splenocytes were CFSE labeled and CFSE dilution was measured in CD8+ cells by flow cytometry (FIG. 3A). CD8+ lymphocyte activation was assessed by measuring TNFα (FIG. 3B). Also, CD4+ lymphocyte activation was assessed by measuring TNFα (FIG. 3C). […]

In test [2] the test system is CD4+ and CD8+ lymphocytes. Briefly: Ex vivo restimulation of splenocytes/lymph nodes from treated tumor-bearing mice with CA9 peptide, flow cytometry. Format: in vivo, Balb/C mice. The note with it: spleen and lymph nodes harvested on day 28, restimulated ex vivo with CA9 peptide. The procedure: FIGS. 4A-4D depict that PF enhanced the antitumor immunity provided by αPD1 or mTOR inhibition in mice. Mice tumors were established by injecting RENCA-CA9 cells subcutaneously in the flank (day 0) of Balb/C mice (6-8 mice per group). PF was administered i.p., twice a week, throughout the experiment, starting on day 10 (FIGS. 4A and 4C). αPD1 was administered i.p., twice a week, throughout the experiment, starting on days 5 (FIG. 4A). Splenocytes were harvested, and restimulated ex vivo with mouse CA9 peptide. The splenocytes were assessed by flow cytometry for Granzyme B, IFNγ or TNFα after gating on CD4 or CD8 (FIG. 4B). In a similar mouse tumor growth experiment, temsirolimus was administered i.p. on day 10, every other day, for 14 days (FIG. 4C). Similar to FIG. 4B, splenocytes were harvested, restimulated and analyzed (FIG. 4D). Representative results are shown for experiments conducted at least twice. […]
FIGS. 6A-6C depict that PF enhances immune activation and CD8+ memory lymphocyte formation. […] Spleen and lymph nodes were harvested on day 28 and restimulated ex vivo with CA9 peptide and assessed by flow cytometry (FIGS. 6B and 6C). CD8+ lymphocytes treated with PF had increased activation as measured by IFNγ or TNFα (FIG. 6B). […]
To assess T cells in mice, CD4+ FoxP3+ cells from serial peripheral blood draws were assessed by flow cytometry. […]
(A flow cytometer gives signals particle by particle.)

Residues, ends and D or L forms follow the SMILES beside them. *: point of attachment. X1 = O=C1CCC(N2C(=O)c3cccc(*)c3C2=O)C(=O)N1; PEG4 = NCCOCCOCCOCCOCCC(=O)O

`CSCC[C@H](NC(=O)[C@H](C)NC(=O)[C@H](Cc1ccccc1)NC(=O)[C@H](Cc1ccccc1)NC(=O)[C@@H]1CCCN1C(=O)[C@H](Cc1c[nH]c2ccccc12)NC(=O)[C@H](CCSC)NC(=O)[C@H](CCCCN)NC(=O)[C@H](CCCNC(=N)N)NC(=O)[C@H](Cc1ccccc1)NC(=O)[C@H](CO)NC(=O)[C@H](CCC(N)=O)NC(=O)[C@H](Cc1ccccc1)NC(=O)[C@H](CC(=O)O)NC(=O)[C@H](CCCNC(=N)N)NC(=O)CCOCCOCCOCCOCCNc1cccc2c1C(=O)N(C1CCC(=O)NC1=O)C2=O)C(=O)O` (stereo partly shown) [PF, Pomalidomide-PEG4-RDFQSFRKMWPFFAM] ({X1-PEG4}-RDFQSFRKMWPFFAM-OH): in test [1], the “suppression of CD4+ effector lymphocyte activation by treated CD4+ cells (TNFα)” value is “less capable of suppressing the activation of CD4+ effector lymphocytes”, the “suppression of CD8+ lymphocyte activation by treated CD4+ lymphocytes (TNFα expression)” value is on record as “less capable of suppressing” and the “suppression of CD8+ lymphocyte proliferation by treated CD4+ lymphocytes (CFSE dilution)” value is given as “less capable of suppressing”. For the same compound, the “memory markers (CD62L, CD44 and Eomes) in CD8+ cells” value in test [2] was “displayed a memory phenotype with increase in CD62L, CD44 and Eomes expression”.
